{
  "source": "patent EP1018299A2",
  "about": "“Plant treatment agents” (BAYER AG, priority 1992, dated 1994)",
  "assay": "UDOS (unilateral desorption from the outer surface): effect of accelerators on the mobility of 14C-labelled 2,4-D in isolated cuticles",
  "format": "in vitro ADME, Citrus",
  "details": "Abb. 11; for Zeitabhängigkeit der Effekte: effects increased with time; for Wirkungen (Effekt auf die Mobilität von 2,4-D): compared with Heptanol, Octanol, Nonanol and Decanol",
  "data": [
    {"smiles": "CCCCCCCCCCCCO", "note": "[Dodecanol]", "values": [
      {"measurement": "Zeitabhängigkeit der Effekte", "value": "stark zeitabhängig"},
      {"measurement": "Wirkungen (Effekt auf die Mobilität von 2,4-D)", "value": "deutlich niedriger"}
    ]},
    {"smiles": "CCCCCCO", "note": "[Hexanol]", "values": [
      {"measurement": "Zeitabhängigkeit der Effekte", "value": "stark zeitabhängig"},
      {"measurement": "Wirkungen (Effekt auf die Mobilität von 2,4-D)", "value": "deutlich niedriger"}
    ]}
  ]
}
